This test is described as follows: Inhibition of IL-6 release in IL-17A/TNFalpha-stimulated HDF cells preincubated with IL-17A and TNFalpha for 5 hrs followed by […] to assay plate and measured after 18 to 20 hrs by europium cryptate and Alexa 665 reagent based FRET assay. In kind it is functional, cell-based. Conditions: Homo sapiens, NHDF.

The compound `Cc1nonc1C(=O)N[C@H](c1cn2ncc([C@@H]3C[C@@](O)(C(F)(F)F)CCN3C(=O)[C@@H]3CCC(F)(F)CO3)nc2n1)C1CCC(F)(F)CC1` showed an IC50 of 2.51 nM.
As for `Cc1nonc1C(=O)N[C@H](c1cn2ncc([C@@H]3C[C@](C)(O)CCN3C(=O)[C@@H]3CCC(F)(F)CO3)nc2n1)C1CCC(F)(F)CC1`, the figure is 3.98 nM; as for `Cc1nonc1C(=O)N[C@H](c1cn2ncc([C@@H]3COCCN3C(=O)C3CCC(F)(F)CO3)nc2n1)C(C1CC1)C1CC1` (stereo partly specified), 3.98 nM; as for `Cc1nonc1C(=O)N[C@H](c1cn2ncc([C@H]3C[C@](C)(O)CCN3C(=O)[C@@H]3CCC(F)(F)CO3)nc2n1)C1CCC(F)(F)CC1`, 5.01 nM.
Regarding `Cc1nonc1C(=O)N[C@H](c1cn2ncc([C@H]3C[C@H](O)CCN3C(=O)[C@@H]3CCC(F)(F)CO3)nc2n1)C1CCC(F)(F)CC1`, the IC50 was 3.98 nM.
As for `Cc1nonc1C(=O)N[C@H](c1cn2ncc([C@@H]3COCCN3C(=O)[C@@H]3CCC(F)(F)CO3)nc2n1)C1CCC(F)(F)CC1`, the figure is 6.31 nM.

A word on the IC50: it is the concentration needed to halve the response being measured. Read a low IC50 as greater potency in that assay.

Values taken from ChEMBL document CHEMBL5257140, “Novel Imidazotriazine Derivatives as IL-17 Modulators for Treating Inflammatory and Autoimmune Disorders” (ACS Med Chem Lett, 2023).
